Measurements as given in US8846933B2, “N-link hydroxamic acid derivatives useful as antibacterial agents” (Pfizer Inc., priority 2009, dated 2014).
Structures can show the parent of a compound that is named as a salt.

How the values were obtained:
Type in all cases: cell-based
[1] = tested on: Acinetobacter baumanii/haemolyticus: Multidrug-resistant clinical isolate (AB-3167); experiment: MIC determination (CLSI), strain AB-3167; settings: unit assumed
Protocol: The in vitro antibacterial activity of compounds described in the Examples was evaluated by minimum inhibitory concentration (MIC) testing according to Clinical and Laboratory Standards Institute (CLSI, formerly NCCLS) guidelines. See: Clinical and Laboratory Standards Institute. Methods for Dilution Antimicrobial Susceptibility Tests for Bacteria that Grow Aerobically; Approved Standard-Seventh Edition. CLSI document M7-A7 [ISBN 1-56238-587-9]. Clinical and Laboratory Standards Institute, 940 West Valley Road, Suite 1400, Wayne, Pa. 19087-1898 USA, 2006; also Clinical and Laboratory Standards Institute. Performance Standards for Antimicrobial Susceptibility Testing; Eighteenth Informational Supplement. CLSI document M100-S18 [ISBN1-56238-653-0].Clinical and Laboratory Standards Institute.
The following bacterial strains were used in these MIC determinations:
2) Acinetobacter baumanii/haemolyticus: Multidrug-resistant clinical isolate labeled as AB-3167 in Tables 4 and 5;

[2] = tested on: Escherichia coli EC-1: VOGEL, mouse virulent; experiment: MIC determination (CLSI), strain EC-1; settings: Escherichia coli EC-1, VOGEL, mouse virulent; unit assumed
How it was run: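 The mouse-virulent VOGEL isolate of E. coli, EC-1, served as test organism. Minimum inhibitory concentration was measured by CLSI dilution methodology (M7-A7; M100-S18 standards).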

[3] = tested on: Pseudomonas aeruginosa UI-18: Wild-type (PA-7); experiment: MIC determination (CLSI), strain PA-7; settings: Pseudomonas aeruginosa UI-18, wild-type; unit assumed
How it was run: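 Strain tested was P. aeruginosa UI-18, a wild-type isolate labelled PA-7. Minimum inhibitory concentrations followed CLSI dilution methodology for aerobically growing bacteria (M7-A7, M100-S18).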

Compound	AB-3167 (MIC) [1] [µg/mL]	EC-1 (MIC) [2] [µg/mL]	PA-7 (MIC) [3] [µg/mL]
Cc1c(-c2ccccc2)ccn(CCC(C)(C(=O)NO)S(C)(=O)=O)c1=O (stereo not drawn) [Example 52, N-Hydroxy-2-methyl-4-(3-methyl-2-oxo-4-phenylpyridin-1(2H)-yl)-2-(methylsulfonyl)butanamide]	> 64	2	4
Cc1cc2cc(-c3ccn(CC[C@](C)(C(=O)NO)S(C)(=O)=O)c(=O)c3)ccc2[nH]1 [Example 19, (2R)-N-hydroxy-2-methyl-4-[4-(2-methyl-1H-indol-5-yl)-2-oxopyridin-1(2H)-yl]-2-(methylsulfonyl)butanamide]	> 64	1	2
C[C@@](CCn1ccc(-c2ccc3c(c2)OCCO3)cc1=O)(C(=O)NO)S(C)(=O)=O [Example 18, (2R)-4-[4-(2,3-dihydro-1,4-benzodioxin-6-yl)-2-oxopyridin-1(2H)-yl]-N-hydroxy-2-methyl-2-(methylsulfonyl)butanamide]	> 64	> 64	1
CC(CCn1ccc(OCc2ccccc2)cc1=O)(C(=O)NO)S(C)(=O)=O (stereo not drawn) [Example 51, 4-[4-(Benzyloxy)-2-oxopyridin-1(2H)-yl]-N-hydroxy-2-methyl-2-(methylsulfonyl)butanamide]	> 64	16	16
CC(CCn1ccc(-c2ccc(CCCO)cc2)cc1=O)(C(=O)NO)S(C)(=O)=O (stereo not drawn) [Example 31, N-Hydroxy-4-{4-[4-(3-hydroxypropyl)phenyl]-2-oxopyridin-1(2H)-yl}-2-methyl-2-(methylsulfonyl)butanamide]	> 64	8	4
CC(CCn1ccc(-c2ccc(OCCCN3CCC(F)(F)CC3)cc2)cc1=O)(C(=O)NO)S(C)(=O)=O (racemic) [Example 4, (+/−)-4-[4-{4-[3-(4,4-Difluoropiperidin-1-yl)propoxy]phenyl}-2-oxopyridin-1(2H)-yl]-N-hydroxy-2-methyl-2-(methylsulfonyl)butanamide hydrochloride]	> 64	1	4
COc1ccc(-c2ccn(CC[C@](C)(C(=O)NO)S(C)(=O)=O)c(=O)c2)cc1 [Example 17, (2R)-N-hydroxy-4-[4-(4-methoxyphenyl)-2-oxopyridin-1(2H)-yl]-2-methyl-2-(methylsulfonyl)butanamide]	> 64	0.5	0.5
CC(CCn1ccc(-c2ccc(OCCCO)cc2)cc1=O)(C(=O)NO)S(C)(=O)=O (stereo not drawn) [Example 30, N-hydroxy-4-{4-[4-(3-hydroxypropoxy)phenyl]-2-oxopyridin-1(2H)-yl}-2-methyl-2-(methylsulfonyl)butanamide]	> 64	2	4
C[C@@](CCn1ccc(-c2ccc(Cl)cc2)cc1=O)(C(=O)NO)S(C)(=O)=O [Example 15, (2R)-4-[4-(4-chlorophenyl)-2-oxopyridin-1(2H)-yl]-N-hydroxy-2-methyl-2-(methylsulfonyl)butanamide]	> 64	0.5	0.5
C[C@@](CCn1ccc(-c2ccc(-c3ccccc3)s2)cc1=O)(C(=O)NO)S(C)(=O)=O [Example 68-P, (2R)-N-hydroxy-2-methyl-2-(methylsulfonyl)-4-[2-oxo-4-(5-phenyl-2-thienyl)pyridin-1(2H)-yl]butanamide]	> 64	0.06	8
C[C@@](CCn1ccc(-c2ccc(F)c(F)c2F)cc1=O)(C(=O)NO)S(C)(=O)=O [Example 50, (2R)-N-hydroxy-2-methyl-2-(methylsulfonyl)-4-[2-oxo-4-(2,3,4-trifluorophenyl)pyridin-1(2H)-yl]butanamide]	64	0.5	0.5
Cc1ccc(-c2ccn(CC[C@](C)(C(=O)NO)S(C)(=O)=O)c(=O)c2)c(F)c1 [Example 13, (2R)-4-[4-(2-fluoro-4-methylphenyl)-2-oxopyridin-1(2H)-yl]-N-hydroxy-2-methyl-2-(methylsulfonyl)butanamide]	> 64	0.5	0.5
C[C@@](CCn1ccc(-c2ccccc2)cc1=O)(C(=O)NO)S(C)(=O)=O [Example 11, (2R)-N-Hydroxy-2-methyl-2-(methylsulfonyl)-4-(2-oxo-4-phenylpyridin-1(2H)-yl)butanamide]	64	8	1
C[C@@](CCn1cc(F)c(-c2ccccc2)cc1=O)(C(=O)NO)S(C)(=O)=O [Example 56, (2R)-4-(5-fluoro-2-oxo-4-phenylpyridin-1(2H)-yl)-N-hydroxy-2-methyl-2-(methylsulfonyl)butanamide]	> 64	4	1
C[C@@](CCn1ccc(-c2ccc(F)cc2)cc1=O)(C(=O)NO)S(C)(=O)=O [Example 41, (2R)-4-[4-(4-fluorophenyl)-2-oxopyridin-1(2H)-yl]-N-hydroxy-2-methyl-2-(methylsulfonyl)butanamide]	> 64	1	0.5
CC(CCn1ccc(-c2ccc(OCCc3ccncc3)cc2)cc1=O)(C(=O)NO)S(C)(=O)=O (stereo not drawn) [Example 37, N-hydroxy-2-methyl-2-(methylsulfonyl)-4-{2-oxo-4-[4-(2-pyridin-4-ylethoxy)phenyl]pyridin-1(2H)-yl}butanamide]	> 64	0.5	4
CC(CCn1ccc(-c2ccc(Oc3ccccn3)cc2)cc1=O)(C(=O)NO)S(C)(=O)=O (stereo not drawn) [Example 29, N-Hydroxy-2-methyl-2-(methylsulfonyl)-4-{2-oxo-4-[4-(pyridin-2-yloxy)phenyl]pyridin-1(2H)-yl}butanamide]	> 64	0.5	4
C[C@@](CCn1ccc(-c2ccc([C@H]3C[C@@H](O)C3)cc2)cc1=O)(C(=O)NO)S(C)(=O)=O [Example 5, (2R)-N-hydroxy-4-{4-[4-(cis-3-hydroxycyclobutyl)phenyl]-2-oxopyridin-1(2H)-yl}-2-methyl-2-(methylsulfonyl)butanamide]	> 64	4	2
Cc1ccc(-c2ccn(CC[C@](C)(C(=O)NO)S(C)(=O)=O)c(=O)c2)cc1 [Example 16, (2R)-N-hydroxy-2-methyl-4-[4-(4-methylphenyl)-2-oxopyridin-1(2H)-yl]-2-(methylsulfonyl)butanamide]	> 64	0.5	0.5
C[C@@](CCn1ccc(-c2c(F)ccc(F)c2F)cc1=O)(C(=O)NO)S(C)(=O)=O [Example 22, (2R)-N-hydroxy-2-methyl-2-(methylsulfonyl)-4-[2-oxo-4-(2,3,6-trifluorophenyl)pyridin-1(2H)-yl]butanamide]	> 64	2	4
COc1ccc(-c2ccn(CC[C@](C)(C(=O)NO)S(C)(=O)=O)c(=O)c2)c(F)c1 [Example 21, (2R)-4-[4-(2-fluoro-4-methoxyphenyl)-2-oxopyridin-1(2H)-yl]-N-hydroxy-2-methyl-2-(methylsulfonyl)butanamide]	32	0.125	0.25
C[C@@](CCn1ccc(-c2ccc(-c3ccon3)cc2)cc1=O)(C(=O)NO)S(C)(=O)=O [Example 68-F, (2R)-N-hydroxy-4-[4-(4-isoxazol-3-ylphenyl)-2-oxopyridin-1(2H)-yl]-2-methyl-2-(methylsulfonyl)butanamide]	> 64	0.25	0.5
C[C@@](CCn1ccc(-c2ccc([C@H]3C[C@H](O)C3)cc2)cc1=O)(C(=O)NO)S(C)(=O)=O [Example 6, (2R)-N-hydroxy-4-{4-[4-(trans-3-hydroxycyclobutyl)phenyl]-2-oxopyridin-1(2H)-yl}-2-methyl-2-(methylsulfonyl)butanamide]	> 64	4	4
C[C@@](CCn1ccc(-c2ccc(Cl)c(F)c2)cc1=O)(C(=O)NO)S(C)(=O)=O [Example 68-B, (2R)-4-[4-(4-chloro-3-fluorophenyl)-2-oxopyridin-1(2H)-yl]-N-hydroxy-2-methyl-2-(methylsulfonyl)butanamide]	> 64	0.5	0.5
CC(C)(O)COc1ccc(-c2ccn(CCC(C)(C(=O)NO)S(C)(=O)=O)c(=O)c2)cc1 (stereo not drawn) [Example 10-J, N-hydroxy-4-{4-[4-(2-hydroxy-2-methylpropoxy)phenyl]-2-oxopyridin-1(2H)-yl}-2-methyl-2-(methylsulfonyl)butanamide]	> 64	4	8
C[C@@](CCn1ccc(C#Cc2ccccc2)cc1=O)(C(=O)NO)S(C)(=O)=O [Example 65, (2R)-N-Hydroxy-2-methyl-2-(methylsulfonyl)-4-[2-oxo-4-(phenylethynyl)pyridin-1(2H)-yl]butanamide]	64	0.125	0.5
